These results are taken from patent publication US20230203506A1, “LACTIC ACID OPTICAL PROBE, PREPARATION METHOD THEREFOR AND APPLICATION THEREOF” (East China University of Science and Technology, priority 2019, published 2023).

The first experiment can be described thus: Lactate concentration-gradient titration of purified probe (ratio of 420 nm to 485 nm excitation, 528 nm emission). The class given is binding. The settings on record: ratio 420 nm/485 nm excitation. The text has this:
(§1) 6. […] The fluorescence excitation and emission determination of the samples were done using a multifunctional fluorescence microplate reader.
In the case of “P189C/P190Y: LldR(80-258)-185/189-cpYFP mutant”, the magnitude of change is 4.3 fold.

Still in this experiment, the particulars now being: ratio 420 nm/485 nm excitation, read-out: Kd (binding constant).
By Kd is commonly meant the concentration at which binding is half-saturated. Take “P189C/P190Y: LldR(80-258)-185/189-cpYFP mutant”: the Kd was 41 µM.

The nature of another experiment: Lactate response detection of purified probe (signal with 10 mM lactate divided by signal without lactate). The class given is biochemical. The settings on record: M185 saturation mutants of two-site mutants of LldR(80-258)-185/189-cpYFP.
“M185A/P189M/P190D: three-site mutant of LldR(80-258)-185/189-cpYFP; Table 4 row printed WD”: the “Response of the three-site mutants to lactate” value is 8.4.

As for “M185F/P189H/P190D: three-site mutant of LldR(80-258)-185/189-cpYFP”, the “Response of the three-site mutants to lactate” value is 8.0. Same read-out and setting: with “M185L/P189H/P190D: three-site mutant of LldR(80-258)-185/189-cpYFP” the figure was 15.3; with “M185L/P189M/P190D: three-site mutant of LldR(80-258)-185/189-cpYFP; Table 4 row printed WD”, 5.6; with “M185S/P189H/P190D: three-site mutant of LldR(80-258)-185/189-cpYFP”, 7.0.

Regarding “M185V/P189H/P190D: three-site mutant of LldR(80-258)-185/189-cpYFP”, the “Response of the three-site mutants to lactate” value was 6.2.

Assay in the next experiment: as above
Format: biochemical. The conditions noted are these: detection signal with 10 mM lactate divided by signal without lactate; mutants of LldR(80-258)-185/189-cpYFP. The procedure: 4. After purified proteins were subjected to SDS-PAGE, probes were diluted to a protein solution having a final concentration of 5-10 μM using assay buffer (100 mm HEPES, 100 mM NaCl, pH 7.3) or phosphate buffer PBS.
as §1
Mutants of the two sites, 189 and 190, were constructed on the basis of LldR(80-258)-185/189-cpYFP. Plasmid pCDFDuet-LldR(80-258)-185/189-cpYFP was linearized by reverse PCR, mutations were introduced at mutation sites by primers, and the obtained PCR products was ligated by adding phosphorus with PNK, T4 DNA ligase, and PEG4000, transformed into BL21 (DE3), and then screened. […] Exemplary nucleic acid sequences were shown in SEQ ID No: 31 (LldR(80-258)-185/189-P189F/P190D-cpYFP).
Take “P189/P190(WT): lactate optical probe, cpYFP inserted at 185/189 of LldR(80-258), unmutated”: the “Responses to lactate for 189 mutant versus 190 mutant” value came to 0.2. With “P189C/P190F: LldR(80-258)-185/189-cpYFP mutant”, the “Responses to lactate for 189 mutant versus 190 mutant” value came to 2.3.

For “P189C/P190Y: LldR(80-258)-185/189-cpYFP mutant”, the “Responses to lactate for 189 mutant versus 190 mutant” value was found to be 4.0.

On to “P189F/P190D: LldR(80-258)-185/189-cpYFP mutant”, for which the “Responses to lactate for 189 mutant versus 190 mutant” value is 13.4. Still for that read-out and setting: under “P189F/P190H: LldR(80-258)-185/189-cpYFP mutant” stands 3.7; under “P189H/P190D: LldR(80-258)-185/189-cpYFP mutant”, 8.9; under “P189H/P190R: LldR(80-258)-185/189-cpYFP mutant”, 3.2.

Consider “P189M/P190D: LldR(80-258)-185/189-cpYFP mutant”, for which the “Responses to lactate for 189 mutant versus 190 mutant” value is 7.0. The same measure, in the same setting: under “P189N/P190F: LldR(80-258)-185/189-cpYFP mutant” stands 2.3. On to “P189N/P190Y: LldR(80-258)-185/189-cpYFP mutant”, for which the “Responses to lactate for 189 mutant versus 190 mutant” value is listed as 3.1. Same read-out and setting: under “P189N: LldR(80-258)-185/189-cpYFP mutant” stands 2.1.

As for “P189R/P190I: LldR(80-258)-185/189-cpYFP mutant”, the “Responses to lactate for 189 mutant versus 190 mutant” value is recorded as 3.5. As for “P189S: LldR(80-258)-185/189-cpYFP mutant”, the “Responses to lactate for 189 mutant versus 190 mutant” value was 3.3.
